Data taken from patent US5369112A, “Method of treating cataracts caused by active oxygen” (Mitsubishi Gas Chemical Company, Inc., priority 1991, dated 1994).
Read-outs that look alike come from different tables or passages of the source. Blank lines part the entries; values can stand above or below the compound they belong to.

Columns and labels:
[1] = system: Hydrocortisone-Induced Cataract of Hen's Eggs; assay: Effect on hydrocortisone-induced cataract of hen's eggs; assay type: in vivo, white leghorn (hen's eggs); conditions: 1 μmole at 3, 10 and 20 h after hydrocortisone; lens at 48 h
Experimental: Fertilized eggs of white leghorn were incubated in an incubator at a temperature of 37° C. and 70% in humidity. The day on which the incubation was started was taken to be one day old. […] eggs of 15 day old were prepared and divided into 7 groups, each of which included 5 eggs (A-G). A small hole was bored through the eggshell above air chamber of the eggs of groups B-G and 0.25 μmole (as 0.2 ml solution) of hydrocortisone sodium succinate was administered into the air chamber through the hole and then, the hole was sealed with a cellophane tape. To The eggs of groups C-G was administered 1 μmole of following compounds after 3, 10 and 20 hours from administration of hydrocortisone sodium succinate. That is, 0.2 ml of a solution of PQQ·2Na in distilled water was administered to the eggs of group C, 0.2 ml of a suspension of PQQ trimethyl ester in 1% Tween 80 solution was administered to the eggs of group D, 0.2 ml of a suspension of triallyl ester in 1% Tween 80 solution was administered to the eggs of group E, 0.2 ml of a solution of OPQ in 10 mM NaCO3 solution was administered to the eggs of group F, and 0.2 ml of a solution of methyl OPQ in 10 mM NaCO3 solution was administered to the eggs of group G.
Crystal lens was taken out after 48 hours from administration of hydrocortisone sodium succinate and degree of cataract was judged by the criteria according to the Nishigori et al method (Nishigori et al, "Investigative Ophthalmology & Visual Science", Vol. 25, page 1051, 1984).
5 The whole nucleus was hazed in white.

[2] = Superoxide scavenging activity (hypoxanthine-xanthine oxidase, DMPO spin trapping, ESR); assay type: biochemical; conditions: pH 7.3, read-out: O2^- scavenging activity IC50
Excerpt: Activity of PQQ esters to scavenge superoxide (O2^-) produced in the system of hypoxanthinexanthine oxidase was examined by spin trapping method [using 5,5-dimethyl-l-pyrroline-N-oxide (hereinafter referred to as "DMPO") as a spin trapping agent] where electron spin resonance (hereinafter referred to as "ESR") was used.
Hypoxanthine+2O2 →2O2^- +uric acid (xanthine oxidase)
The following reagents were successively put in a test tube and stirred after addition of the hypoxanthine 7 to initiate the reaction and the reaction mixture was transferred to a quartz cell used for measurement of ESR.
Superoxide scavenging activity of OPQ and esters thereof was examined in the same manner as in Example 1.

[3] = Hydroxy radical scavenging activity (H2O2-(Fe^2+-DTPA), DMPO spin trapping, ESR); assay type: biochemical; conditions: pH 7.3, read-out: .OH scavenging activity IC50
Excerpt: Activity of PQQ esters to scavenge hydroxy radical (·OH) produced in the system of H2 O2 --(Fe^2+ -DTPA) was examined by spin trapping method [using 5,5-dimethyl-1-pyrroline-N-oxide (hereinafter referred to as "DMPO") as a spin trapping agent] where electron spin resonance (hereinafter referred to as "ESR") was used. DTPA means diethylenetriamine-pentaacetic acid.
H2 O2 +Fe^2 -DTPA complex→·OH+OH^-
The following reagents were successively put in a test tube and stirred after addition of H2 O2 6 to initiate the reaction and the reaction mixture was transferred to a quartz cell used for measurement of ESR.
Hydroxy radical scavenging activity of OPQ and esters thereof was examined in the same manner as in Example 3.

mice [4] = assay: Kidney Toxicity Determined by Blood Examination (1); assay type: in vivo; conditions: mouse serum
Experimental: After lapse of one day from the administration, the mice were fasted (with feeding only water) and then after 18 hours, blood was collected and serum was obtained therefrom. Glucose, urea nitrogen and creatinine in the serum were examined by clinical examination reagent (trademark: FUJI DRYCHEMSLIDE manufactured by Fuji Photo Film Co., Ltd.).

mice [5] = conditions: mouse, in vivo, ip
Experimental: One group consisted of 8 mice. For administration, PQQ·2Na and OPQ and esters thereof were dissolved in physiological saline and PQQ trimethyl ester and PQQ triallyl ester were suspended in 1% Tween 80-containing physiological saline, respectively.
PQQ·2Na, PQQ trimethyl ester, PQQ triallyl ester and OPQ and esters thereof were intraperitoneally administered to mice and they were bred in the same manner as in the above acute toxicity test. Urine of the mice was taken every day and glucose concentration was measured using clinical examination reagent (trademark: […] 2 manufactured by Miles.Sankyo Co.).

- IC50 ([2]; Example 2, Table 7): 1.64 µM
- IC50 ([3]; Example 4, Table 9): 153 µM
Compound: Cc1nc2c3nc(C(=O)O)cc(C(=O)O)c3c3[nH]c(C(=O)O)cc3c2o1 [Methyl OPQ, methyl OPQ (R=CH3)]
- Judgement 1 (No haze was seen in crystal lens), eggs [1]: 1/5
- Judgement 3 (Clear ring of white haze was seen in crystal lens), eggs [1]: 2/5
- Judgement 4 ~ 5 (white haze of pinhole size in nucleus ~ whole nucleus hazed in white), eggs [1]: 2/5

- IC50 ([2]; Example 1, Table 6): 0.0106 µM
Compound: PQQ dimethyl ester

- IC50 ([2]; Example 2, Table 7): 2.96 µM
- IC50 ([3]; Example 4, Table 9): 110 µM
Compound: O=C(O)CCc1nc2c3nc(C(=O)O)cc(C(=O)O)c3c3[nH]c(C(=O)O)cc3c2o1 [2-Carboxyethyl OPQ, 2-carboxyethyl OPQ (R=CH2 CH2 CO2 H)]

- IC50 ([2]; Example 1, Table 6): 0.0769 µM
- IC50 ([3]; Example 3, Table 8): 31 µM
Compound: O=C(OCc1ccccc1)c1cc(C(=O)OCc2ccccc2)c2c(n1)C(=O)C(=O)c1cc(C(=O)OCc3ccccc3)[nH]c1-2 [PQQ tribenzyl ester]

Compound: O=C(O)c1cc(C(=O)O)c2c(n1)c1nc(Cc3ccccc3)oc1c1cc(C(=O)O)[nH]c12 [Benzyl OPQ, benzyl OPQ]
- Creatinine (mice [4]; 40 mg/kg): 0.68 ± 0.05 mg/dL
- Glucose (mice [4]; 40 mg/kg): 90 ± 24 mg/dL
- Urea nitrogen (mice [4]; 40 mg/kg): 23 ± 3 mg/dL
- Creatinine (mice [4]; 80 mg/kg): 0.68 ± 0.04 mg/dL
- Glucose (mice [4]; 80 mg/kg): 87 ± 17 mg/dL
- Urea nitrogen (mice [4]; 80 mg/kg): 23 ± 2 mg/dL
- Creatinine (mice [4]; 160 mg/kg): 0.68 ± 0.08 mg/dL
- Glucose (mice [4]; 160 mg/kg): 87 ± 21 mg/dL
- Urea nitrogen (mice [4]; 160 mg/kg): 26 ± 3 mg/dL
- Creatinine (mice [4]; 200 mg/kg): 0.73 ± 0.05 mg/dL
- Glucose (mice [4]; 200 mg/kg): 84 ± 18 mg/dL
- Urea nitrogen (mice [4]; 200 mg/kg): 25 ± 3 mg/dL
- glucose in urine (mice [5]; 20 mg/kg): -
- glucose in urine (mice [5]; 40 mg/kg): -
- glucose in urine (mice [5]; 80 mg/kg): -
- glucose in urine (mice [5]; 160 mg/kg): -
- glucose in urine (mice [5]; 200 mg/kg): -
- IC50 ([2]; Example 2, Table 7): 3.01 µM
- IC50 ([3]; Example 4, Table 9): 211 µM

- IC50 ([2]; Example 2, Table 7): 3.2 µM
- IC50 ([3]; Example 4, Table 9): 194 µM
Compound: NC(=O)CCc1nc2c3nc(C(=O)O)cc(C(=O)O)c3c3[nH]c(C(=O)O)cc3c2o1 [2-Carbamoylethyl OPQ, 2-carbamoylethyl OPQ (R=CH2 CH2 CONH2)]

- IC50 ([2]; Example 2, Table 7): 2.39 µM
Compound: C=CCOC(=O)c1cc(C(=O)OCC=C)c2c(n1)c1ncoc1c1cc(C(=O)OCC=C)[nH]c12 [OPQ triallyl ester]

- IC50 ([2]; Example 2, Table 7): 4.88 µM
- IC50 ([3]; Example 4, Table 9): 421 µM
Compound: CC(C)Cc1nc2c3nc(C(=O)O)cc(C(=O)O)c3c3[nH]c(C(=O)O)cc3c2o1 [2-Methylpropyl OPQ, 2-methylpropyl OPQ (R=CH2 CH(CH3)2)]
